pIC50: −log10 of the molar value.
test system: IL-1β production in PMA-differentiated THP-1 cells; test: IL-1β production in PMA-differentiated THP-1 cells stimulated with gramicidin (hTHP-1 assay, 2% fetal bovine serum; Procedures 1-3); type: cell-based, human; conditions: Homo sapiens, THP-1, Table B1; hTHP-1 assay containing 2% fetal bovine serum, gramicidin stimulation, IL-1β readout; read-out: hTHP-1 IC50 (average)
In short: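 PMA-primed THP-1 cells (20 ng/ml PMA, 16-18 h) in RPMI with 2% FBS were pre-incubated with compounds for 1 h, from 100 μM downward in 3-fold steps (0.37% DMSO final), then stimulated with 5 μM gramicidin for 2 h. IL-1β in the supernatant was quantified by HTRF.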

Structure (SMILES) | pIC50
COC(C)(C)c1ncc(S(N)(=O)=NC(=O)Nc2c3c(cc4c2CCC4)CCC3)s1 (stereo not shown) [Example 295, N′-((1,2,3,5,6,7-hexahydro-s-indacen-4-yl)carbamoyl)-2-(2-methoxypropan-2-yl)-thiazole-5-sulfonimidamide] | 6.70 to 7.40

same assay, conditions: Homo sapiens, THP-1, hTHP-1 assay containing 2% fetal bovine serum, Table B2, class symbols; read-out: IC50

Structure (SMILES) | pIC50
CC(C)n1nc(S(N)(=O)=NC(=O)Nc2c3c(cc4c2C(=O)CC4)CCC3)cc1CO (stereo not shown) [Compound 907] | 5.30 to 6.00
CC(C)n1nc(S(N)(=O)=NC(=O)Nc2c3c(cc4c2C(=O)CC4)CCC3)cc1C(C)(C)O (stereo not shown) [Compound 908] | 6.00 to 6.70
CC(C)n1nc([S@@](N)(=O)=NC(=O)Nc2c3c(cc4c2C(=O)CC4)CCC3)cc1C(C)(C)O [Compound 908b] | 6.00 to 6.70
CN1CCCC(c2ccc(S(N)(=O)=NC(=O)Nc3c4c(cc5c3CC5)CCC4)c(F)c2)C1 (stereo not shown) [Compound 911] | 5.30 to 6.00
CN1CCC[C@H](c2ccc([S@](N)(=O)=NC(=O)Nc3c4c(cc5c3CC5)CCC4)c(F)c2)C1 [Compound 911b] | 5.30 to 6.00
CN1CCC[C@@H](c2ccc([S@@](N)(=O)=NC(=O)Nc3c4c(cc5c3CC5)CCC4)c(F)c2)C1 [Compound 911d] | 5.30 to 6.00
CC(C)(CO)c1ncc(S(N)(=O)=NC(=O)Nc2c3c(c(C#N)c4c2CCC4)CCC3)s1 (stereo not shown) [Compound 913] | 6.70 to 7.40
CC(C)(CO)c1ncc([S@@](N)(=O)=NC(=O)Nc2c3c(c(C#N)c4c2CCC4)CCC3)s1 [Compound 913a] | 5.30 to 6.00
CC(C)(CO)c1ncc([S@](N)(=O)=NC(=O)Nc2c3c(c(C#N)c4c2CCC4)CCC3)s1 [Compound 913b] | 6.70 to 7.40
CC(C)(O)c1nc(CO)c(S(N)(=O)=NC(=O)Nc2c3c(cc4c2C(=O)CC4)CCC3)s1 (stereo not shown) [Compound 914] | 5.30 to 6.00
CC(C)(O)c1nc(CO)c([S@@](N)(=O)=NC(=O)Nc2c3c(cc4c2C(=O)CC4)CCC3)s1 [Compound 914a] | 4.52 to 5.30
CC(C)(O)c1nc(CO)c([S@](N)(=O)=NC(=O)Nc2c3c(cc4c2C(=O)CC4)CCC3)s1 [Compound 914b] | 5.30 to 6.00
CCn1ccc(S(N)(=O)=NC(=O)Nc2c3c(cc4c2CC4)CCC3)n1 (stereo not shown) [Compound 916] | 6.00 to 6.70
CCn1ccc([S@](N)(=O)=NC(=O)Nc2c3c(cc4c2CC4)CCC3)n1 [Compound 916a] | 6.70 to 7.40
CCn1ccc([S@@](N)(=O)=NC(=O)Nc2c3c(cc4c2CC4)CCC3)n1 [Compound 916b] | 5.30 to 6.00
NS(=O)(=NC(=O)Nc1c2c(cc3c1CCC3)CCC2)c1ccc(-c2ccccc2)s1 (stereo not shown) [Compound 917] | 4.52 to 5.30
C[C@@](O)(CO)c1ncc([S@](N)(=O)=NC(=O)Nc2c3c(cc4c2CC4)CCC3)s1 [Compound 919a] | 6.00 to 6.70

Structure (SMILES) | pIC50
C[C@@](O)(CO)c1ncc([S@@](N)(=O)=NC(=O)Nc2c3c(cc4c2CC4)CCC3)s1 [Compound 919b] | 7.40 to 8.10
C[C@@](O)(CO)c1ncc(S(N)(=O)=NC(=O)Nc2c3c(cc4c2CC4)CCC3)s1 (stereo partly shown) [Compound 919c] | 7.40 to 8.10
C[C@](O)(CO)c1ncc([S@](N)(=O)=NC(=O)Nc2c3c(cc4c2CC4)CCC3)s1 [Compound 919d] | 6.00 to 6.70
C[C@](O)(CO)c1ncc([S@@](N)(=O)=NC(=O)Nc2c3c(cc4c2CC4)CCC3)s1 [Compound 919e] | 7.40 to 8.10
C[C@@](O)(CO)c1ncc([S@@](N)(=O)=NC(=O)Nc2c3c(cc4c2C(=O)CC4)CCC3)s1 [Compound 920b] | 6.00 to 6.70
C[C@](O)(CO)c1ncc(S(N)(=O)=NC(=O)Nc2c3c(cc4c2C(=O)CC4)CCC3)s1 (stereo partly shown) [Compound 920c] | 6.70 to 7.40
C[C@@](O)(CO)c1ncc(S(N)(=O)=NC(=O)Nc2c3c(cc4c2C(=O)CC4)CCC3)s1 (stereo partly shown) [Compound 920d] | 6.00 to 6.70
N[S@@](=O)(=NC(=O)Nc1c2c(cc3c1CCC3)CCC2)c1ccc([C@H]2CCCN2)s1 [Compound 921a] | 4.52 to 5.30
N[S@](=O)(=NC(=O)Nc1c2c(cc3c1CCC3)CCC2)c1ccc([C@H]2CCCN2)s1 [Compound 921b] | 6.00 to 6.70
N[S@@](=O)(=NC(=O)Nc1c2c(cc3c1CCC3)CCC2)c1ccc([C@@H]2CCCN2)s1 [Compound 921c] | 5.30 to 6.00
N[S@](=O)(=NC(=O)Nc1c2c(cc3c1CCC3)CCC2)c1ccc([C@@H]2CCCN2)s1 [Compound 921d] | 6.00 to 6.70
NS(=O)(=NC(=O)Nc1c2c(cc3c1CCC3)CCC2)c1ccc([C@H]2CCCN2)s1 (stereo partly shown) [Compound 921e] | 6.00 to 6.70
CC(C)(O)c1csc(S(N)(=O)=NC(=O)Nc2c3c(cc4c2CCC4=O)CCC3)c1 (stereo not shown) [Example 434, 4-(2-Hydroxypropan-2-yl)-N′-((1-oxo-1,2,3,5,6,7-hexahydro-s-indacen-4-yl)carbamoyl)thiophene-2-sulfonimidamide] | 6.00 to 6.70
CC(C)(O)c1ncc(S(N)(=O)=NC(=O)Nc2cc3c(c4c2CCC4=O)CCC3)s1 (stereo not shown) [Example 435, 2-(2-hydroxypropan-2-yl)-N′-((1-oxo-1,2,3,6,7,8-hexahydro-as-indacen-4-yl)carbamoyl)thiazole-5-sulfonimidamide] | 4.52 to 5.30
CC(C)(O)c1cc(F)c(S(N)(=O)=NC(=O)Nc2c3c(cc4c2CCC4=O)CCC3)s1 (stereo not shown) [Example 438, 3-Fluoro-5-(2-hydroxypropan-2-yl)-N′-((1-oxo-1,2,3,5,6,7-hexahydro-s-indacen-4-yl)carbamoyl)thiophene-2-sulfonimidamide] | 6.00 to 6.70
CC(C)(O)c1nc(S(N)(=O)=NC(=O)Nc2c3c(cc4c2CCC4)CCC3)cs1 (stereo not shown) [Example 440, N-((1,2,3,5,6,7-hexahydro-s-indacen-4-yl)carbamoyl)-2-(2-hydroxypropan-2-yl)thiazole-4-sulfonimidamide] | 6.00 to 6.70

same assay, conditions: Homo sapiens, THP-1, hTHP-1 assay containing 2% fetal bovine serum, Table B2, given as bound; read-out: IC50

Structure (SMILES) | pIC50
CC(C)n1nc([S@](N)(=O)=NC(=O)Nc2c3c(cc4c2C(=O)CC4)CCC3)cc1C(C)(C)O [Compound 908a] | < 4.52
CN1CCC[C@@H](c2ccc([S@](N)(=O)=NC(=O)Nc3c4c(cc5c3CC5)CCC4)c(F)c2)C1 [Compound 911a] | < 4.52
CN1CCC[C@H](c2ccc([S@@](N)(=O)=NC(=O)Nc3c4c(cc5c3CC5)CCC4)c(F)c2)C1 [Compound 911c] | < 4.52
C[C@@](O)(CO)c1ncc([S@](N)(=O)=NC(=O)Nc2c3c(cc4c2C(=O)CC4)CCC3)s1 [Compound 920a] | < 4.52

same assay, conditions: Table B1; hTHP-1 assay containing 2% fetal bovine serum, gramicidin stimulation, IL-1β readout; read-out: hTHP-1 IC50 (average)

Structure (SMILES) | pIC50
CC(C)(O)c1ncc([S@](N)(=O)=NC(=O)Nc2c3c(cc4c2CC4)CCC3)s1 [Example 224, (R)-2-(2-hydroxypropan-2-yl)-N′-((2,4,5,6-tetrahydro-1H-cyclobuta[f]inden-3-yl)carbamoyl) thiazole-5-sulfonimidamide] | 7.40 to 8.10
CC(C)(O)c1ncc(S(N)(=O)=NC(=O)Nc2c3c(cc4c2CC4)CCC3)s1 [Example 225, (R)- and (S)-2-(2-hydroxypropan-2-yl)-N′-((2,4,5,6-tetrahydro-1H-cyclobuta[f]inden-3-yl)carbamoyl)thiazole-5-sulfonimidamide] | 5.30 to 6.00
CNS(=O)(=NC(=O)Nc1c2c(cc3c1CCC3)CCC2)c1cnc(C(C)(C)O)s1 (stereo not shown) [Example 247, N′-((1,2,3,5,6,7-hexahydro-s-indacen-4-yl)carbamoyl)-2-(2-hydroxypropan-2-yl)-N-methylthiazole-5-sulfon-imidamide] | 4.52 to 5.30
CC(c1ccc(S(N)(=O)=NC(=O)Nc2c3c(cc4c2CCC4)CCC3)cc1)N(C)C (stereo not shown) [Example 266, 4-(1-(Dimethylamino)ethyl)-N′-(1,2,3,5,6,7-hexahydro-s-indacen-4-ylcarbamoyl)-benzenesulfonimidamide] | 6.70 to 7.40
CC1CCc2c1cc1c(c2NC(=O)N=S(N)(=O)c2cnc(C(C)(C)O)s2)CCC1 (stereo not shown) [Example 291, 2-(2-Hydroxypropan-2-yl)-N′-((1-methyl-1,2,3,5,6,7-hexahydro-s-indacen-4-yl)-carbamoyl)thiazole-5-sulfon-imidamide] | 6.70 to 7.40

same assay, conditions: hTHP-1 assay containing 2% fetal bovine serum, Table B2, class symbols; read-out: IC50

Structure (SMILES) | pIC50
CC(O)(CO)c1ncc(S(N)(=O)=NC(=O)Nc2c3c(cc4c2CCC4)CCC3)s1 (stereo not shown) [Example 436, 2-(1,2-Dihydroxypropan-2-yl)-N′-((1,2,3,5,6,7-hexahydro-s-indacen-4-yl)carbamoyl)thiazole-5-sulfonimidamide] | 7.40 to 8.10
CC(O)(CO)c1ncc(S(N)(=O)=NC(=O)Nc2c3c(c(C#N)c4c2CCC4)CCC3)s1 (stereo not shown) [Example 437, N′-((8-cyano-1,2,3,5,6,7-hexahydro-s-indacen-4-yl)carbamoyl)-2-(1,2-dihydroxypropan-2-yl)thiazole-5-sulfomidamide] | 5.30 to 6.00
